Source: ChEMBL document CHEMBL1201862, “PubChem BioAssay data set” (2004)
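96-well plates; 48 h exposure; 5 concentrations. Endpoints by linear interpolation between flanking doses. Not reached: highest tested concentration assigned. GI50 marks 50% less growth.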 The source made the active and inactive calls. Rule as the data show it: active = GI50 up to about 1.1 µM and inactive = higher.

Legend:
Assay in all cases: DTP human tumour cell line panel, 48 h
786-0 = tested on: 786-0
UO-31 = tested on: UO-31
SN12C = tested on: SN12C
TK-10 = tested on: TK-10
SNB-19 = tested on: SNB-19
K562 = tested on: K562
CCRF-CEM = tested on: CCRF-CEM
NCI-H460 = tested on: NCI-H460
SK-MEL-2 = tested on: SK-MEL-2
KM12 = tested on: KM12
OVCAR-8 = tested on: OVCAR-8
SF-268 = tested on: SF-268
A549 = tested on: A549
OVCAR-5 = tested on: OVCAR-5
LOX IMVI = tested on: LOX IMVI
HOP-92 = tested on: HOP-92
SF-539 = tested on: SF-539
RXF 393 = tested on: RXF 393
COLO 205 = tested on: COLO 205
SK-OV-3 = tested on: SK-OV-3

SMILES | GI50 (786-0) | GI50 (UO-31) | GI50 (SN12C) | GI50 (TK-10) | GI50 (SNB-19) | GI50 (K562) | GI50 (CCRF-CEM) | GI50 (NCI-H460) | GI50 (SK-MEL-2) | GI50 (KM12) | GI50 (OVCAR-8) | GI50 (SF-268) | GI50 (A549) | GI50 (OVCAR-5) | GI50 (LOX IMVI) | GI50 (HOP-92) | GI50 (SF-539) | GI50 (RXF 393) | GI50 (COLO 205) | GI50 (SK-OV-3)
Cn1c(=O)c2c(nc3n(Cc4ccccc4)c(=O)c(Br)cn23)n(C)c1=O | > 100 µM (inactive) | > 100 µM (inactive) | > 100 µM (inactive) | > 100 µM (inactive) | > 100 µM (inactive) | > 100 µM (inactive) | > 100 µM (inactive) | > 100 µM (inactive) | > 100 µM (inactive) | > 100 µM (inactive) | > 100 µM (inactive) | > 100 µM (inactive) | > 100 µM (inactive) | > 100 µM (inactive) | > 100 µM (inactive) | > 100 µM (inactive) | > 100 µM (inactive) | > 100 µM (inactive) | > 100 µM (inactive) | –
N#Cc1c(O)c(/N=N/c2ccccc2F)c(=O)n2c1[nH]c1ccccc12 | 43.7 µM (inactive) | 29.3 µM (inactive) | 31.6 µM (inactive) | 55.6 µM (inactive) | 48.1 µM (inactive) | 36.3 µM (inactive) | 36.8 µM (inactive) | 32.6 µM (inactive) | 20.9 µM (inactive) | – | 39.3 µM (inactive) | 32.4 µM (inactive) | 42.5 µM (inactive) | 34 µM (inactive) | 61.9 µM (inactive) | 15.1 µM (inactive) | > 100 µM (inactive) | 37.8 µM (inactive) | 55.1 µM (inactive) | 50.5 µM (inactive)
Cc1cccc2c(N)c3cccc(C(=O)NCC[N+](C)(C)Cc4sccc4[N+](=O)[O-])c3nc12 | 5.56 µM (inactive) | 20.5 µM (inactive) | 0.332 µM (active) | 25.9 µM (inactive) | 6.59 µM (inactive) | 3.64 µM (inactive) | > 100 µM (inactive) | – | 72.9 µM (inactive) | 9.68 µM (inactive) | 9.84 µM (inactive) | 19 µM (inactive) | 0.491 µM (active) | 5.37 µM (inactive) | 13.5 µM (inactive) | 34.5 µM (inactive) | 2.83 µM (inactive) | 12.9 µM (inactive) | 13.3 µM (inactive) | 10.8 µM (inactive)
O=C1/C(=C/c2ccccc2O)N=C(c2ccccc2)N1c1nc2ccccc2s1 | 14.5 µM (inactive) | 36.6 µM (inactive) | – | 23.8 µM (inactive) | – | 7.85 µM (inactive) | 25.5 µM (inactive) | 11.2 µM (inactive) | 9.18 µM (inactive) | 7.73 µM (inactive) | 23.9 µM (inactive) | 20.2 µM (inactive) | – | 51.4 µM (inactive) | 15.5 µM (inactive) | 29.9 µM (inactive) | 20.7 µM (inactive) | 34.3 µM (inactive) | – | 23.4 µM (inactive)
COC(=O)C(=Cc1cc(OC)c(OC)c(OC)c1-c1cc2c(cc1C1(C)OCCS1)OCO2)C(=O)OC (stereo not given) | 38.8 µM (inactive) | – | 44.5 µM (inactive) | 86.9 µM (inactive) | 98.9 µM (inactive) | 33.6 µM (inactive) | 33 µM (inactive) | 26.6 µM (inactive) | 21.1 µM (inactive) | 19.1 µM (inactive) | 31.6 µM (inactive) | 29.5 µM (inactive) | 29.1 µM (inactive) | > 100 µM (inactive) | 22.6 µM (inactive) | 3.5 µM (inactive) | 40.6 µM (inactive) | 26.7 µM (inactive) | 40 µM (inactive) | 38.3 µM (inactive)
COc1ccc(NC(=O)/C(=N/O)C(C)=O)cc1 | 45.1 µM (inactive) | > 100 µM (inactive) | > 100 µM (inactive) | > 100 µM (inactive) | > 100 µM (inactive) | 47.5 µM (inactive) | 75.3 µM (inactive) | 23.5 µM (inactive) | > 100 µM (inactive) | > 100 µM (inactive) | > 100 µM (inactive) | > 100 µM (inactive) | > 100 µM (inactive) | > 100 µM (inactive) | 30.8 µM (inactive) | > 100 µM (inactive) | > 100 µM (inactive) | > 100 µM (inactive) | – | > 100 µM (inactive)
CCOC(=O)/C=C/c1cccc(F)c1 | > 100 µM (inactive) | > 100 µM (inactive) | > 100 µM (inactive) | > 100 µM (inactive) | > 100 µM (inactive) | > 100 µM (inactive) | > 100 µM (inactive) | > 100 µM (inactive) | > 100 µM (inactive) | > 100 µM (inactive) | > 100 µM (inactive) | > 100 µM (inactive) | > 100 µM (inactive) | > 100 µM (inactive) | > 100 µM (inactive) | > 100 µM (inactive) | > 100 µM (inactive) | > 100 µM (inactive) | > 100 µM (inactive) | –
CCN(CC)c1ccc(/C=C/C=C2C(=O)NC(=S)NC2=O)cc1 | 27.7 µM (inactive) | > 71.8 µM (inactive) | 29.9 µM (inactive) | > 62.2 µM (inactive) | 43.7 µM (inactive) | – | 2.81 µM (inactive) | > 100 µM (inactive) | > 68.9 µM (inactive) | 38 µM (inactive) | 14.3 µM (inactive) | 22.5 µM (inactive) | > 100 µM (inactive) | > 100 µM (inactive) | 13.5 µM (inactive) | 77.8 µM (inactive) | 13.9 µM (inactive) | 8.07 µM (inactive) | > 100 µM (inactive) | > 100 µM (inactive)
CC(=O)N(C(C)=O)c1ncc(-n2nc(-c3ccccc3)cc2-c2ccccc2)c(-c2ccccc2)n1 | > 10 µM (inactive) | – | > 10 µM (inactive) | > 10 µM (inactive) | > 10 µM (inactive) | > 10 µM (inactive) | 9.75 µM (inactive) | > 10 µM (inactive) | > 10 µM (inactive) | 6.17 µM (inactive) | > 10 µM (inactive) | > 10 µM (inactive) | > 10 µM (inactive) | > 10 µM (inactive) | 6.73 µM (inactive) | > 10 µM (inactive) | > 10 µM (inactive) | > 10 µM (inactive) | > 10 µM (inactive) | > 10 µM (inactive)
CCC12CCCN(Cc3ccccc3)C1c1c(n(C)c3ccccc13)[C@H](C(=O)OC)C2 (stereo not given in full) | > 239 µM (inactive) | – | 224 µM (inactive) | > 239 µM (inactive) | > 239 µM (inactive) | > 239 µM (inactive) | > 239 µM (inactive) | > 239 µM (inactive) | > 239 µM (inactive) | > 239 µM (inactive) | > 239 µM (inactive) | > 239 µM (inactive) | > 239 µM (inactive) | 147 µM (inactive) | > 239 µM (inactive) | 10.6 µM (inactive) | > 239 µM (inactive) | > 239 µM (inactive) | 112 µM (inactive) | > 239 µM (inactive)
CN(C)c1ccc(/N=C2/NC(=N\c3ccccc3)/C(=N/c3ccccc3)S2)cc1 | 32 µM (inactive) | – | > 100 µM (inactive) | 62.4 µM (inactive) | 87.3 µM (inactive) | – | 97.5 µM (inactive) | > 100 µM (inactive) | 98.2 µM (inactive) | > 100 µM (inactive) | 66.5 µM (inactive) | > 100 µM (inactive) | > 100 µM (inactive) | > 100 µM (inactive) | 37.6 µM (inactive) | > 100 µM (inactive) | > 100 µM (inactive) | 43.1 µM (inactive) | > 100 µM (inactive) | 48.9 µM (inactive)
